{
  "source": "patent US5183828A",
  "about": "“Polyhydroxybenzoic acid derivatives” (priority 1990, dated 1993)",
  "key": {"[1]": {"experiment": "scavenging of generated tyrosine free radical by pulse radiolysis", "protocol": "Additional free radical scavenging potential of a compound of this invention was measured on a generated tyrosine free radical. There is evidence that a tyrosine free radical is formed as part of the mammalian ribonucleotide reductase enzyme during the conversion of ribonucleotides to deoxyribonucleotides--see L. Akerblom, et al. Proc. Natl. Acad. Sci. USA, 78, 2159-2163 (1981). The method for the generation of the tyrosine free radical and its destruction by a compound of this invention was accomplished by pulse radiolysis experiments at Brunel University, […] England on the Brunel 4 MeV linear accelerator using a 1.5 cm optical cell and a 200 ns pulse delivering a dose of approximately 1 krad as measured by thiocyanate dosimetry. All solutions were purged with nitrogen using a syringe-deaerating technique prior to use. The detailed description of the methodology can be found in R. L. Willson, Chemistry and Industry, 183-193 (1977).\nFor the generation of the tyrosine radical, sodium azide was utilized as an intermediate between the pulse radiolysis generated free electron and tyrosine. […] See also I. K. Larsen et al., Eur. J. Biochem, 125, 75-81 (1982)."}, "L1210 leukemia": {"test_system": "L1210 leukemia", "experiment": "antitumor activity in L1210 leukemia (percent increase in survival time), Table 2", "assay_type": "in vivo, mice", "conditions": "Mus musculus, L1210, 192 h, 8 days; for ILS at 300 mg/kg: 300 mg/kg ip daily", "protocol": "Testing of the compounds of this invention against L-1210 lymphoid leukemia were carried out as follows: L-1210 leukemia was maintained by weekly passage of 10^5 L-1210 cells intraperitoneally into DBA/2 mice. Diluted ascitic fluid, 0.1 ml. (10^5 cells), was administered ip to female B6D2 F1 mice weighing about 20 g. Drugs were administered ip 24 hours after tumor transplantation and injections were continued daily for a total of eight days. A group of control mice receiving only the injection medium were maintained. Table 2 which follows gives the antitumor activity against L-1210 leukemia for certain compounds of this invention. In the table, column 1 gives the name of the compound, column 2 the dose in mg./kg., and column 3 the percent increase in survival time over controls at each dose level."}, "L-1210 Leukemia": {"test_system": "L-1210 Leukemia", "experiment": "activity vs L-1210 leukemia (T/C % survival time), Table 3", "assay_type": "in vivo, mice", "conditions": ">130 significant", "text": "3,4-Dihydroxybenzamidoxime and 3,4,5-trihydroxybenzamidoxime were subjected to a further series of tests against various transplanted tumors in mice according to the following protocols:\nFor L-1210 lymphoid leukemia, 20 grams CDF1 or BDF1 mice […] ip with 10^5 leukemia cells. The drug was given one day after tumor inoculation continued for an additional eight days. The mean survival time for the treated animal was compared to that of the control group. In the table, column 1 gives the name of the compound, column 2 the dose levels, and column 3 treated over control percent survival time. (In other words, a figure of 175 indicates a 75% increase in survival time.)"}, "Colon 38": {"test_system": "Colon 38", "experiment": "activity vs colon 38 (T/C % median tumor weight), Table 5", "assay_type": "in vivo", "protocol": "A compound of this invention was also tested on the solid colon tumor model, colon 38. The tumor was implanted subcutaneously and the drug injected intraperitoneally twice a day on day two (seven hours apart) and twice on day nine. The median tumor weight estimated from tumor diameter is the parameter of tumor inhibition and is measured on day 20. The median tumor weight of treated versus control=T/C percent."}, "P388 Leukemia": {"test_system": "P388 Leukemia", "experiment": "activity vs P388 leukemia (T/C % survival time), Table 6", "assay_type": "in vivo, mice", "conditions": "five treatments, >130 significant", "protocol": "The following protocol was used:\nCDF1 mice were injected ip with 10^6 cells The drug was administered in the first day after tumor inoculation and continued daily for five treatments. The mean survival time of the treated group compared to the non-treated control group equals T/C×100=T/C percent."}, "[2]": {"test_system": "arachidonic acid induced ear edema", "experiment": "arachidonic acid induced ear edema assay, Table 10", "assay_type": "in vivo, Mice", "conditions": "Experiment 2, 2 mg total dose, topical", "protocol": "The compounds of this invention because of their ability to scavenge free-radicals in vivo are capable of modulating inflammation as set forth in the following protocol: Mice received the test compound topically to each side of the right ear one hr prior to the inflammatory challenge, at which time they were challenged (except for the negative control) with 10 microliter of a 2 mg/20 microliter solution of arachidonic acid applied to each side of the right ear. One hour post-challenge, the animals were sacrificed, the right ears removed, and an 8 mm disc punched from each. These discs were then weighed. The following table gives the results of this experiment."}},
  "note": "“And” between values parts separate entries of the source, which are not always exact repeats. Equal entries are not always repeated. Structures can show the parent of a compound that is named as a salt.",
  "data": [
    {"molecule": "NC(=NO)c1ccc(O)c(O)c1", "note": "[3,4-dihydroxybenzamidoxime.HCl, 3,4-dihydroxybenzamidoximehydrochloride]", "values": [
      {"measurement": "rate constant (tyrosine free radical scavenging)", "setting": "[1]; pulse radiolysis", "result": "4.5×10^8 M^-1 S^-1"},
      {"measurement": "times faster scavenger of tyrosine free radical than hydroxyurea", "setting": "[1]; vs hydroxyurea", "result": "≥ 100", "unit": "times"},
      {"measurement": "ILS at 157 mg/kg", "setting": "L1210 leukemia; 157 mg/kg ip daily", "result": 132, "unit": "%"},
      {"measurement": "ILS at 200 mg/kg", "setting": "L1210 leukemia; 200 mg/kg ip daily", "result": 43.5, "unit": "%"},
      {"measurement": "ILS at 238 mg/kg", "setting": "L1210 leukemia; 238 mg/kg ip daily", "result": 46.9, "unit": "%"},
      {"measurement": "ILS at 300 mg/kg", "setting": "L1210 leukemia", "result": 73.9, "unit": "%"},
      {"measurement": "t/c % (mean survival time)", "setting": "L-1210 Leukemia; 25 mg/kg", "result": 130, "unit": "%"},
      {"measurement": "t/c % (mean survival time)", "setting": "L-1210 Leukemia; 50 mg/kg", "result": "137% and 117% and 132% and 146%"},
      {"measurement": "t/c % (mean survival time)", "setting": "L-1210 Leukemia; 100 mg/kg", "result": "128% and 132% and 141% and 133%"},
      {"measurement": "t/c % (mean survival time)", "setting": "L-1210 Leukemia; 200 mg/kg", "result": "175% and 128% and 155% and 186%"},
      {"measurement": "t/c % (mean survival time)", "setting": "L-1210 Leukemia; 300 mg/kg", "result": 113, "unit": "%"},
      {"measurement": "T/C % (median tumor weight, day 20)", "setting": "Colon 38; 800 mg/kg ip, twice on day two and twice on day nine", "result": 87, "unit": "%"},
      {"measurement": "activity at lower doses", "setting": "Colon 38; doses lower than 800 mg/kg", "result": "ineffective"}
    ]},
    {"molecule": "CCOC(=N)c1cc(O)c(O)c(O)c1", "note": "[ethyl 3,4,5-trihydroxybenzamidate-HCl, Ethyl 3,4,5-trihydroxybenzamidate hydrochloride]", "values": [
      {"measurement": "T/C % (mean survival time)", "setting": "P388 Leukemia; 12.5 mg/kg daily", "result": 104, "unit": "%"},
      {"measurement": "T/C % (mean survival time)", "setting": "P388 Leukemia; 25 mg/kg daily", "result": 112, "unit": "%"},
      {"measurement": "T/C % (mean survival time)", "setting": "P388 Leukemia; 50 mg/kg daily", "result": 114, "unit": "%"},
      {"measurement": "T/C % (mean survival time)", "setting": "P388 Leukemia; 100 mg/kg daily, listed as ethyl gallamidate.HCl, hydrochloride", "result": "129% and 128%"},
      {"measurement": "T/C % (mean survival time)", "setting": "P388 Leukemia; 200 mg/kg daily, listed as ethyl gallamidate.HCl, hydrochloride", "result": "139% and 123%"},
      {"measurement": "T/C % (mean survival time)", "setting": "P388 Leukemia; 400 mg/kg daily, listed as ethyl gallamidate.HCl, hydrochloride", "result": "149% and 160%"},
      {"measurement": "Percent Inhibition vs. positive control", "setting": "[2]", "result": 35, "unit": "%"},
      {"measurement": "Mean Increase in Weight of Inflammed Ear (± S.E.)", "setting": "[2]; positive control 19.0 ± 0.5, p = .000", "result": "12.3 ± 0.4", "unit": "mg"},
      {"measurement": "ILS at 300 mg/kg", "setting": "L1210 leukemia", "result": 42.3, "unit": "%"},
      {"measurement": "ILS at 450 mg/kg", "setting": "L1210 leukemia; 450 mg/kg ip daily", "result": 58.4, "unit": "%"}
    ]}
  ]
}
